Molecules are shown by their SMILES.

The test deals with Human neural cells line from sympatic ganglia - SHSY-5Y. As to conditions: sertraline 10 μM 24 hours, then PEMF 2 hrs at 50 or 55 Hz, vs control cells, PCR array.

As to `CN[C@H]1CC[C@@H](c2ccc(Cl)c(Cl)c2)c2ccccc21` [sertraline, (1S,4S)-4-(3,4-dichlorophenyl)-N-methyl-1,2,3,4-tetrahydronaphthalen-1-amine], the “Fold increase in mRNA, Bone morphonogenic Protein 1 (BMP1)” value came out at 4 fold; the “Fold increase in mRNA, Bone morphonogenic Protein 5 (BMP5)” value is 8 fold; the “Fold increase in mRNA, IL-17B” value turned out to be 8 fold; the “Fold increase in mRNA, IL-18” value is listed as 4 fold. The “Fold increase in mRNA, IL-20” value stood at 4 fold; the “Fold increase in mRNA, IL-21” value is 4 fold; the “Fold increase in mRNA, Il-8” value was found to be 8 fold; the “Fold increase in mRNA, Interleukin 10 (IL-10)” value worked out at 1 fold. For the same compound, the “Fold increase in mRNA, TNF SF10” value turned out to be 8 fold; the “Fold increase in mRNA, TNF SF11” value is 2 fold; the “Fold increase in mRNA, TNFR SF11” value amounted to 8 fold; the “Fold increase in mRNA, Transforming growth factor beta 3 (TGFB3)” value worked out at 5 fold. Also, the “Fold increase in mRNA, Tumor necrosis factor (TNF)” value was determined as 8 fold.

The values are drawn from patent US8911342B2, “Apparatus and method for pulsed electrical field treatment” (Re5 ApS, priority 2009, dated 2014).
